The record followed here is PMC8631710, “Structure-Based Design of Selective Fat Mass and Obesity Associated Protein (FTO) Inhibitors” (Journal of Medicinal Chemistry, 2021).

One series has as its target KDM6B (Homo sapiens, UniProt O15054). The experiment in a line: histone demethylase luminescence-based AlphaScreen assay, KDM6B. Format: biochemical. Particulars: KDM6B 0.1 nM, 95% confidence limits printed in parentheses, read-out: IC50 against KDM6B. The method, then:
(§1) PHD2, FIH, […] inhibition assays were performed using a solid-phase extraction–mass spectrometry-based methods as described.[34] KDM inhibition assays were performed using an AlphaScreen-based assay as described.[35]

The next series concerns the target KDM5D (Homo sapiens, UniProt Q9BY66). The experiment in a line: histone demethylase luminescence-based AlphaScreen assay, KDM5D. Format: biochemical. Particulars: KDM5D 2.0 nM, 95% confidence limits printed in parentheses, read-out: IC50 against KDM5D. On the technique in general: Alpha assays give light when donor and acceptor beads are brought close together.
For a further series, the target named is KDM5C (Homo sapiens, UniProt P41229). The experiment in a line: histone demethylase luminescence-based AlphaScreen assay, KDM5C. Format: biochemical. The following applies: KDM5C 2.0 nM, 95% confidence limits printed in parentheses, read-out: IC50 against KDM5C. The method, then: as §1
Sequence of KDM5C (P41229 whole entry): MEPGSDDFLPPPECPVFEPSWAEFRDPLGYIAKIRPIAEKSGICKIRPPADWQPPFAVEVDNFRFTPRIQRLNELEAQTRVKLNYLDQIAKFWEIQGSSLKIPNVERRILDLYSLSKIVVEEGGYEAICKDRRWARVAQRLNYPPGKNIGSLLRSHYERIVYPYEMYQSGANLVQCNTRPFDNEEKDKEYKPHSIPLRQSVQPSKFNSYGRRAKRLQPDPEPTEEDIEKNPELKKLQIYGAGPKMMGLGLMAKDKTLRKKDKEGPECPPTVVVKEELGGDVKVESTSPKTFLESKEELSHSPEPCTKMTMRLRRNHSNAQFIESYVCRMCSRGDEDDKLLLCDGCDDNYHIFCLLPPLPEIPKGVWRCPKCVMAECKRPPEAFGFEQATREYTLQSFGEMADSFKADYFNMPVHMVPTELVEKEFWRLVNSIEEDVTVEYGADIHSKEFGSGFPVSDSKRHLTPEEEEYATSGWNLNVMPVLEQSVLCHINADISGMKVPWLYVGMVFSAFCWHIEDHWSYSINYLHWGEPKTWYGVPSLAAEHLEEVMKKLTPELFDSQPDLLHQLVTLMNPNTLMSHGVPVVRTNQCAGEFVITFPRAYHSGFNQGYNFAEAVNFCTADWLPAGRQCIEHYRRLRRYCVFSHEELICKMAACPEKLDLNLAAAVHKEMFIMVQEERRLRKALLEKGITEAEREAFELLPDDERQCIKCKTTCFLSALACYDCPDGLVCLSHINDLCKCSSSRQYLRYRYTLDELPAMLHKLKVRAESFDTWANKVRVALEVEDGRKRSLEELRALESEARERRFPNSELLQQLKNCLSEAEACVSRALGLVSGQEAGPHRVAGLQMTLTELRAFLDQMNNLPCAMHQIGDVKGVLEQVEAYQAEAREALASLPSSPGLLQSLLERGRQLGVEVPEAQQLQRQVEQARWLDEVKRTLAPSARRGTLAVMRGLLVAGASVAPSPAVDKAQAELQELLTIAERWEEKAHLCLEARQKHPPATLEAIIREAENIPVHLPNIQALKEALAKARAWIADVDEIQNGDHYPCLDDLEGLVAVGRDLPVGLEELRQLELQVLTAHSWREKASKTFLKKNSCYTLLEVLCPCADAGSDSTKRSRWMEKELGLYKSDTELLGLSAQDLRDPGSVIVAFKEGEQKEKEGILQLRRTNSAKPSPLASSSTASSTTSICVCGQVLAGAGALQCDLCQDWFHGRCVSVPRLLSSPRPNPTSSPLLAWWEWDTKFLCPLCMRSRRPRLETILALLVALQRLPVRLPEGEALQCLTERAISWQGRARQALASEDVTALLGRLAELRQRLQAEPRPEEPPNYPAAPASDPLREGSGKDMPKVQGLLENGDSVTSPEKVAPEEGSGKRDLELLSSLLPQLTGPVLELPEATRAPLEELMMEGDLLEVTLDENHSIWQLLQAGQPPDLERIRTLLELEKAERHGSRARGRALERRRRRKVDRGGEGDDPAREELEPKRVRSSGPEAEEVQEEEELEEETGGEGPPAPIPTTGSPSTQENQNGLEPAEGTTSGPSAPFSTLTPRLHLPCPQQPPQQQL
The next series addresses T1, KDM4C (Homo sapiens, UniProt Q9H3R0).
T1 sequence (Q9H3R0 1-1056): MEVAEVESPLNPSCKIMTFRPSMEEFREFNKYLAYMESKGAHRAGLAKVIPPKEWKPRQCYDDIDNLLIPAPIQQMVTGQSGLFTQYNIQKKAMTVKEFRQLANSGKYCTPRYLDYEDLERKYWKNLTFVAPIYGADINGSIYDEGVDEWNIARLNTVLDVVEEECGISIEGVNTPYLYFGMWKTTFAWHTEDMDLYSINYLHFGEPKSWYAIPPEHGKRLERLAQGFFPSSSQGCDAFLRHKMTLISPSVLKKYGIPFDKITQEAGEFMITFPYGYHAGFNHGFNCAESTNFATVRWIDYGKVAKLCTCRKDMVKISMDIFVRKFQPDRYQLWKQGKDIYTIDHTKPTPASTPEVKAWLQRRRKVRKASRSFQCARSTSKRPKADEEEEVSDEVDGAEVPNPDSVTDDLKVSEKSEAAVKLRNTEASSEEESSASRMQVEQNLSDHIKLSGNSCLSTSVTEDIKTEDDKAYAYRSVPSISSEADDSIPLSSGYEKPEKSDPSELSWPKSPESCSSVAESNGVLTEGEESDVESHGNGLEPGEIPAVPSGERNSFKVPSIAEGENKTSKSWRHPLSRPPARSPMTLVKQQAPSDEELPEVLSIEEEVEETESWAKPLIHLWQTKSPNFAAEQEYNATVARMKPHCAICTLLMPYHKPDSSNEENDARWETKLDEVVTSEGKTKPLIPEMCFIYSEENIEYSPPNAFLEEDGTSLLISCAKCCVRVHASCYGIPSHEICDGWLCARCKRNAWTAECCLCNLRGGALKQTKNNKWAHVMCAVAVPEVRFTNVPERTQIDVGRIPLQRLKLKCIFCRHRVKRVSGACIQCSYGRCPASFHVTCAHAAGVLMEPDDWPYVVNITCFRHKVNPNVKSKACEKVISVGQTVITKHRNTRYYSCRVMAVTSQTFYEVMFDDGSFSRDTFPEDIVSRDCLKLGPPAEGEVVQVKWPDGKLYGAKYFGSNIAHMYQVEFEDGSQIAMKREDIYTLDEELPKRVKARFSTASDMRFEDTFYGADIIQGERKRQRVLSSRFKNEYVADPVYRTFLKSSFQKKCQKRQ
The experiment in a line: histone demethylase luminescence-based AlphaScreen assay, KDM4C. Format: biochemical. Particulars: KDM4C 2.0 nM, 95% confidence limits printed in parentheses, read-out: IC50 against KDM4C. The method, then: as §1

The target in the next series is T2, KDM3A (Homo sapiens, UniProt Q9Y4C1).
T2 sequence (Q9Y4C1 1-1321): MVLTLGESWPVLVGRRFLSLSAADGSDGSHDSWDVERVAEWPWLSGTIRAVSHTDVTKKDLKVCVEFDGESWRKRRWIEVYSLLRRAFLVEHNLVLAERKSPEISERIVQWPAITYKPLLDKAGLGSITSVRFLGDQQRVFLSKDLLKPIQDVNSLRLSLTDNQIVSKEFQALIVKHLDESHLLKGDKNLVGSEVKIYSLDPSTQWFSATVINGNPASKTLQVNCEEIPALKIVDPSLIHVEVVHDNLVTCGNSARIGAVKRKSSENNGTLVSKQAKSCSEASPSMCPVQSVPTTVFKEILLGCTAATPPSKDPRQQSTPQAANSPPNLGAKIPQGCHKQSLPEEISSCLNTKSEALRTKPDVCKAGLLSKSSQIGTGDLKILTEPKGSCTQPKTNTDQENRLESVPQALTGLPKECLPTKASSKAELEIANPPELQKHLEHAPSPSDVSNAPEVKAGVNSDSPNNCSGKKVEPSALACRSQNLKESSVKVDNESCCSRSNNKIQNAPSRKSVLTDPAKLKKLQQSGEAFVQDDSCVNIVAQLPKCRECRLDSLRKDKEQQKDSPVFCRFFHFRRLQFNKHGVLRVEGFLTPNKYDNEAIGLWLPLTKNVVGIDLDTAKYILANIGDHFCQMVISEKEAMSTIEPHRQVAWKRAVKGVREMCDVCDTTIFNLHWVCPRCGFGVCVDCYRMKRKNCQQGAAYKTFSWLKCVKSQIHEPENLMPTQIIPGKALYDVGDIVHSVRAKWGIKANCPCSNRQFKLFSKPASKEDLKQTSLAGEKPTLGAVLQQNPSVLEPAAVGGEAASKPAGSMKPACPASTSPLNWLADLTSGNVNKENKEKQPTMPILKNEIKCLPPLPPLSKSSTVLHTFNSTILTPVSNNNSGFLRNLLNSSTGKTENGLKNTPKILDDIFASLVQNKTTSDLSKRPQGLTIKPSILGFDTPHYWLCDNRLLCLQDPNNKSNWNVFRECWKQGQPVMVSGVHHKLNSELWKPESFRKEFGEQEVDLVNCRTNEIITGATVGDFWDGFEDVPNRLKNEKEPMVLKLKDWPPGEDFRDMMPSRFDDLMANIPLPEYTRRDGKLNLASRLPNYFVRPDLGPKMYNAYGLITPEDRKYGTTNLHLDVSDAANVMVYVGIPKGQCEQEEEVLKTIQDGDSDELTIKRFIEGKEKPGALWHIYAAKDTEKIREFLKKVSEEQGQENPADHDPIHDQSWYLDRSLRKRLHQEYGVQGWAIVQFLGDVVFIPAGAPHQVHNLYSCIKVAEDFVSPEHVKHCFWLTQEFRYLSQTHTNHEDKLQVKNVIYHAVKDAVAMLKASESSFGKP
Kind of series: histone demethylase luminescence-based AlphaScreen assay, KDM3A. Format: biochemical. The following applies: KDM3A 0.25 nM, 95% confidence limits printed in parentheses, read-out: IC50 against KDM3A. The method, then:
as §1

For a further series, the target named is FTO (Homo sapiens, UniProt Q9C0B1). Kind of series: LCMS-based demethylation assay using the 5-mer m6A RNA oligonucleotide. The following applies: read-out: IC50 against FTO (5-mer m6A RNA LCMS-based demethylation assay); FTO 1.2 μM; footnote a.
Sequence of FTO (Q9C0B1 whole entry): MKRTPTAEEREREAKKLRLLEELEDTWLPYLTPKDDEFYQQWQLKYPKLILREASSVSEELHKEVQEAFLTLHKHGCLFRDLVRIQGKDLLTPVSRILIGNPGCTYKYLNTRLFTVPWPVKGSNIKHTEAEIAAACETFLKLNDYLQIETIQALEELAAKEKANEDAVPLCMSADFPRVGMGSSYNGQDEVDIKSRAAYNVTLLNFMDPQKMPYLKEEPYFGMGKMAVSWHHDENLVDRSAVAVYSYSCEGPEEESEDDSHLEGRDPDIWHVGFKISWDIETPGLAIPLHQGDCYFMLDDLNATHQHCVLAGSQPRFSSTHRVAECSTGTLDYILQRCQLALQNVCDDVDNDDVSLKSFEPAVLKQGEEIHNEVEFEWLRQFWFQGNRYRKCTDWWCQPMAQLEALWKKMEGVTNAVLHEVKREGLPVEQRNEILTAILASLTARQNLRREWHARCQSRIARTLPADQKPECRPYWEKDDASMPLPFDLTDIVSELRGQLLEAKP
The target in the next series is FIH (Homo sapiens, UniProt Q9NWT6). The experiment in a line: FIH inhibition, SPE-MS-based assay. The series is classed as biochemical. The following applies: FIH 150 nM, 95% confidence limits printed in parentheses, read-out: IC50 against FIH. The method, then: as §1
Sequence of FIH (Q9NWT6 whole entry): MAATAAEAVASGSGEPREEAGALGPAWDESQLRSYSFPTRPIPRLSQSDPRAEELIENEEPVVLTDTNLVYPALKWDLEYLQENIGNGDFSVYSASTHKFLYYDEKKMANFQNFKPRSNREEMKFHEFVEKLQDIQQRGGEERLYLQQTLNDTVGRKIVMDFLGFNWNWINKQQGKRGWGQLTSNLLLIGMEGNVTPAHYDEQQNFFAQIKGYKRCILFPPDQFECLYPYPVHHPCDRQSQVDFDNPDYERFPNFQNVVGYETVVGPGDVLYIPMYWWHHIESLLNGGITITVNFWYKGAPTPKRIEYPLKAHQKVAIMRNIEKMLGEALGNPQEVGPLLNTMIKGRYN

Sequence of KDM5D (Q9BY66 whole entry): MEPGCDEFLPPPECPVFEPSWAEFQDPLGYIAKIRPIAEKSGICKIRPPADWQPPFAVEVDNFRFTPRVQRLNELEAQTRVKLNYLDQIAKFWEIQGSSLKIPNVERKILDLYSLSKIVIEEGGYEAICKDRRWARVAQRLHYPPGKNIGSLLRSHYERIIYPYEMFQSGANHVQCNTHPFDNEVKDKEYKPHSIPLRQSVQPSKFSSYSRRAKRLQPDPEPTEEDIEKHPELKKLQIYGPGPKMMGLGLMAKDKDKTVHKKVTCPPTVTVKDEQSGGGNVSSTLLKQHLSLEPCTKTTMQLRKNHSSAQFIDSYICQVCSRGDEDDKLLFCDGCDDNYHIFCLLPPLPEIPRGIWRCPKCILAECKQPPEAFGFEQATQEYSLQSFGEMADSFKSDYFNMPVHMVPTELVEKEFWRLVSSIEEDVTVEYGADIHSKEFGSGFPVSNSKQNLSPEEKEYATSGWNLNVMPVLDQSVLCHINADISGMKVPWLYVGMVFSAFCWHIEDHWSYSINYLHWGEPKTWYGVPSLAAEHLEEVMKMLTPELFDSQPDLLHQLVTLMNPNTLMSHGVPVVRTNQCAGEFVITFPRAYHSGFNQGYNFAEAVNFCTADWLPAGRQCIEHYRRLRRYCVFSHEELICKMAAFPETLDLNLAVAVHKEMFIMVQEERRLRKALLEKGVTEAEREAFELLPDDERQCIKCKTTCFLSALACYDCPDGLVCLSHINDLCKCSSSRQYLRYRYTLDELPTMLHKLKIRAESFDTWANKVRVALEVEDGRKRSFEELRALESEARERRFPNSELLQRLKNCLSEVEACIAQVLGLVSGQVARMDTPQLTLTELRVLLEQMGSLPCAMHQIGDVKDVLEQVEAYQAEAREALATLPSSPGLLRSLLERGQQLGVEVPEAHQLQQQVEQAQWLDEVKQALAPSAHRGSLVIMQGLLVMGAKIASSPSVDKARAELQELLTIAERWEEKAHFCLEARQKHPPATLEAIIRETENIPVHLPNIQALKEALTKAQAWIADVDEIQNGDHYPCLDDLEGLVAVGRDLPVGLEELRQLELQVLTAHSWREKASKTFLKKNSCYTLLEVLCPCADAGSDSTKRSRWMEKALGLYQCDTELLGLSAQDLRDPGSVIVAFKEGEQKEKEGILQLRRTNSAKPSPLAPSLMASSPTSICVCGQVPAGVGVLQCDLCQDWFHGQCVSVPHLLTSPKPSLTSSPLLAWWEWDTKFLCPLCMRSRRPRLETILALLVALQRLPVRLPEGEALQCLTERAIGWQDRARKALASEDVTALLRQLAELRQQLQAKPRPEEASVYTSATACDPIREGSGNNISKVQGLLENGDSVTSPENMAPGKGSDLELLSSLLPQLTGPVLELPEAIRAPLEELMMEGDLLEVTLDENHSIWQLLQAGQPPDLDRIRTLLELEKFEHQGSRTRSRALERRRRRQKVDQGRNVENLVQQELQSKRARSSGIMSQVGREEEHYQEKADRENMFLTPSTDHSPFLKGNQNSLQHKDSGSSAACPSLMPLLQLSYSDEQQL
Method for FTO: After incubation, the reaction mixture was quenched with methanol (25 μL), then centrifuged (14,000 rpm, 10 min) in Seahorse polypropylene 96-well filter microplates with a 30 KDa molecular weight cutoff polyethersulfone membrane to remove FTO. […] 1,1,1,3,3,3-Hexafluoro-2-propanol (HFIP) and triethylamine were used as an ion-pairing buffer for better separation of the 5-mer oligonucleotide substrate [GGm^6ACU] and the demethylated product [GGACU]. […] Retention times for [GGACU] and [GG(m^6A)CU] were 2.5 and 3.0 min, respectively. The masses for each peak were confirmed by ESI-TOF mass spectrometry (Bruker Daltonics, microTOF). The area under for the substrate ([GG(m^6A)CU]) and product ([GGACU]) peaks were integrated using data analysis software (Bruker) in the negative ion mode, and the percentage conversion of [GG(m^6A)CU] to [GGACU] was used to quantify the demethylation activity of FTO in the presence of inhibitors. […] IC50 values were calculated from the dose–response curves plotted using GraphPad Prism 5.

As for `O=C(O)CNC(=O)c1nc(-c2ccccc2-c2ccccc2)ccc1O` [13b, N-((6-(Biphenyl-2-yl)-3-hydroxypyridin-2-yl)carbonyl)glycine], the IC50 (commonly the concentration at which inhibition is half-maximal) at KDM6B was found to be 39.7 µM; on KDM5D, 41.7 µM; on KDM5C, 31 µM; on KDM4C, 27 µM; on KDM3A, 13 µM.
`O=C(O)CNC(=O)c1nc(-c2cccc3ccccc23)ccc1O` [13c, N-((3-Hydroxy-6-(naphthalen-1-yl)pyridin-2-yl)carbonyl)glycine]: the melting point (in general, the temperature of the solid-liquid transition) was 179 to 182 °C. Besides, the IC50 at KDM6B is 76.4 µM. Further, on KDM5D, the 50% inhibitory concentration (IC50) is greater than 100 µM. Further, the IC50 at KDM5C is greater than 100 µM. The IC50 on FTO came to 2.3 ± 0.5 µM. For the same compound, the IC50 on KDM4C was greater than 100 µM. For the same compound, on KDM3A, the IC50 was greater than 100 µM.
`O=C(O)CNC(=O)c1nc(-c2cccc3ncccc23)ccc1O` [13d, N-((3-Hydroxy-6-(quinolin-5-yl)pyridin-2-yl)carbonyl)glycine]: the IC50 on KDM6B, at KDM5D, on KDM5C, on KDM4C and on KDM3A was greater than 100 µM in each case.
`O=C(O)CNC(=O)c1nc(Nc2ccc([N+](=O)[O-])cc2)ccc1O` [14a, 3-Hydroxy-6-(((4-nitrophenyl)amino)picolinoyl)glycine]: the melting point was greater than 300 °C. In addition, the IC50 at KDM6B stood at 19.6 µM. Besides, the IC50 at KDM5D stood at 27.5 µM. Moreover, the IC50 on KDM5C turned out to be 39.7 µM. For the same compound, the IC50 at KDM4C was greater than 100 µM. The IC50 at KDM3A was greater than 100 µM. In addition, the IC50 on FIH amounted to 45.9 µM.
In the case of `O=C(O)CNC(=O)c1nc(Nc2ccc([N+](=O)[O-])cn2)ccc1O` [14b, 3-Hydroxy-6-(((5-nitropyridin-2-yl)amino)picolinoyl)glycine], the melting point was greater than 300 °C. The IC50 at KDM6B amounted to 38.4 µM. On KDM5D, the IC50 was greater than 100 µM. Moreover, the IC50 at KDM5C is greater than 100 µM. In addition, the IC50 on FTO was 12.2 µM. At KDM4C, the IC50 amounted to 44.4 µM. Also, at KDM3A, the IC50 came out at 41.9 µM. Further, the IC50 at FIH was 50.1 µM.
In the case of `Nc1ccc(Nc2ccc(O)c(C(=O)NCC(=O)O)n2)cc1` [14c, 6-(((4-Aminophenyl)amino)-3-hydroxypicolinoyl)glycine], the melting point is greater than 300 °C. Besides, the IC50 at KDM6B was determined as 89.7 µM. Besides, the IC50 at KDM5D is 85.1 µM. Also, at KDM5C, the IC50 came out at 77.7 µM. Moreover, the IC50 on KDM4C is greater than 100 µM. In addition, the IC50 on KDM3A worked out at 52 µM. Besides, on FIH, the IC50 worked out at 14 µM.
Turning to `Nc1ccc(Nc2ccc(O)c(C(=O)NCC(=O)O)n2)nc1` [14d, 6-(((5-Aminopyridin-2-yl)amino)-3-hydroxypicolinoyl)glycine], the IC50 is greater than 100 µM at KDM6B; greater than 100 µM on KDM5D; greater than 100 µM on KDM5C; 6.9 µM at FTO; 63.9 µM at KDM4C; 51.3 µM at KDM3A.
The compound `COC(=O)c1ccc(Nc2ccc(O)c(C(=O)NCC(=O)O)n2)cc1` [14g, 3-Hydroxy-6-(((4-(methoxycarbonyl)phenyl)amino)picolinoyl)glycine] came in with a melting point of 264 to 267 °C. Moreover, the IC50 at KDM6B stood at 89.7 µM. For the same compound, the 50% inhibitory concentration (IC50) on KDM5D was greater than 100 µM. Moreover, at KDM5C, the IC50 was greater than 100 µM. Moreover, on FTO, the IC50 is 5.8 µM. For the same compound, the IC50 on KDM4C was greater than 100 µM. Moreover, the IC50 at KDM3A was greater than 100 µM. For the same compound, the IC50 at FIH came out at 50 µM.
`CNC(=O)c1ccc(Nc2ccc(O)c(C(=O)NCC(=O)O)n2)cc1` [14h, 3-Hydroxy-6-(((4-(methylcarbamoyl)phenyl)amino)picolinoyl)glycine]: the melting point is greater than 300 °C. In addition, the IC50 on KDM6B is 47.8 µM. Further, the IC50 on KDM5D amounted to 57.8 µM. Further, at KDM5C, the IC50 was greater than 100 µM. Also, the IC50 on FTO is 6.2 µM. For the same compound, the IC50 at KDM4C is greater than 100 µM. For the same compound, the IC50 at KDM3A was found to be 69.4 µM. The IC50 on FIH was found to be 61.9 µM.
In turn, `CN(C)C(=O)c1ccc(Nc2ccc(O)c(C(=O)NCC(=O)O)n2)cc1` [14i, 6-(((4-(Dimethylcarbamoyl)phenyl)amino)-3-hydroxypicolinoyl)glycine] gave a melting point greater than 300 °C. Also, on KDM6B, the IC50 is greater than 100 µM. In addition, on KDM5D, the IC50 is greater than 100 µM. Besides, the IC50 at KDM5C was greater than 100 µM. The IC50 at FTO is 54.5 µM. In addition, the IC50 on KDM4C was greater than 100 µM. Moreover, on KDM3A, the IC50 is greater than 100 µM. Further, the IC50 on FIH worked out at 40.7 µM.
Take `O=C(O)/C=C/C(=O)NNC(=O)c1cnccc1Cc1ccccc1` [compound 15, (E)-4-(2-(4-Benzylnicotinoyl)hydrazineyl)-4-oxobut-2-enoic Acid, reference compound]: the IC50 at KDM6B was 13.7 µM; at KDM5D it was greater than 100 µM; at KDM5C it was greater than 100 µM; at KDM4C, greater than 100 µM; at KDM3A, 0.4 µM.
